Tests used:
bovine erythrocyte GPx = molecular target: T1, bovine erythrocyte GPx (Bos taurus, UniProt P00435); assay: GPx enzyme activity assay (TBHP/GSH, GR/NADPH coupled); assay type: biochemical
T1 construct: 180 μL of a bovine erythrocyte GPx1 solution (0.125 U/mL); purchased Sigma Aldrich (Taufkirchen, Germany); host or cells: bovine erythrocytes
T1 sequence (P00435 1-205): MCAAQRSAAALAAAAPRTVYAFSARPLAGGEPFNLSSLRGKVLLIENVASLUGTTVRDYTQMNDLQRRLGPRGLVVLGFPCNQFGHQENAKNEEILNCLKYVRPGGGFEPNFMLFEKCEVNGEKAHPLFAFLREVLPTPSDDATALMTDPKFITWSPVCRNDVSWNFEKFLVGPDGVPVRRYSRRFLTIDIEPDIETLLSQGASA
Method: The ability of pentathiepins to inhibit the bovine erythrocyte GPx activity was assayed for by an established enzyme method, which is based on the GPx‐dependent reduction of tert‐butyl hydroperoxide (TBHP) by GSH, leading to the formation of GSSG, which is coupled to the reduction of GSSG back to GSH by glutathione reductase (GR) and the oxidation of NADPH to NADP^+[10] (Figure 1). Inhibition potencies of the compounds were ranked by their IC50 values; that is, concentration of the inhibitor at the inflection point in the sigmoidal log dose‐inhibition curve (Figure 4A), and are summarized for the pentathiepins and mercaptosuccinic acid (MSA) in Table 1.
GPx enzyme activity assay: To evaluate if the various compounds could inhibit GPx1, an enzymatic assay monitoring the activity of the bovine erythrocyte GPx was used as described previously.33 Bovine erythrocyte GPx is highly homologous to the human GPx1 (homology of 87 %)34 but much more affordable. In this assay, GPx reduces tert‐butylhydroperoxide (TBHP) followed by oxidation of glutathione (GSH) to the disulfide (GSSG), which in turn is regenerated to GSH by glutathione reductase (GR) with the consumption of NADPH. To each well of a UV‐transparent 96‐well plate were added 180 μL of a bovine erythrocyte GPx1 solution (0.125 U/mL) and 30 μL of prospective inhibitor in different concentrations diluted in DMF and incubated under shaking for 15 min at room temperature. Then 30 μL of stock solutions of GSH (2.5 mM) and baker's yeast GR plus NADPH (2 U/mL; 2.0 mM) were added. All stock solutions were prepared in potassium phosphate buffer (50 mM, pH 7.4, EDTA 1.1 mM, Triton‐X 0.01 %). The reaction was started by addition of TBHP solution (5 mM), giving final concentrations of 0.075 U/mL bovine erythrocyte GPx, 0.2 U/mL GR, 0.25 mM GSH, 0.2 mM NADPH and prospective inhibitor concentrations between 0.2–100 μM. The reaction was followed by the rate of decreasing absorption of the NADPH at λ=340 nm, measured every 15 s for ca. 20 min. The GPx activity related to untreated control was imported into the GraphPad Prism 6.0 software and the IC50 values were calculated by estimating the inflection point of the sigmoidal log concentration‐activity curves.

SISO cell line = assay: MTT viability with ferrostatin-1 co-treatment (ferroptosis probe); assay type: cell-based, human; conditions: ferrostatin-1 1.5-6.0 μM, MTT 48 h
From the text: Another form of programmed cell death is ferroptosis, which is iron dependent and activated by lipid peroxidation (LPO) in the cell membrane.14 Unlike apoptosis, PARP cleavage is not observed in this cell death mechanism. GPx4, a membrane bound isoenzyme of GPx1, is believed to be a key protector of cells from ferroptosis by destroying lipid peroxides in the cell membrane.
MTT cell viability assay: For the detection of the inhibition of the viability of cells by the pentathiepins, the MTT‐viability assay was used.37 Briefly, 10 000 and 20 000 cells for the suspension cell lines HL‐60 and Gumbus, respectively, were seeded out in 50 μL medium per well and immediately exposed to the compounds. For the adherent cell lines SISO and HAP‐1, 3000 and 5000 cells, respectively, were seeded out in 96‐well plates and allowed to attach for 24 h. Cells were exposed to nine serial dilutions of compound, added to the medium from 1000‐fold concentrated stock solution in DMF. For the controls, cells were exposed to 0.1 % DMF alone. After 48 h incubation, 20 μL of the MTT stock solution (2.5 mg/mL in PBS) were added to each well to give a final concentration of 1.0 mM. […] Optical density was measured with a SpectraMax Plus 383 microtiter plate read at λ=570 nm (Molecular Devices, USA). […]

HL-60 cells = assay: Western blot analysis of PARP cleavage; assay type: cell-based, human; conditions: multiple IC50 concentrations, 6 h
Method: (§1) Another method for detecting caspase dependent apoptosis is to measure the cleavage of the enzyme poly‐(ADP‐ribose)‐polymerase (PARP) by western blotting. After an apoptotic stimulus, caspases, e. g. caspase‐3 and caspase‐7, cleave PARP, resulting in a loss of its function to mediate DNA‐repair processes. Cells were incubated with multiple IC50 concentrations of 4 for 6 and 24 h. […] Thus, pentathiepin 4 appears to induce the caspase dependent induction of apoptosis.
(§2) Western blot analysis of PARP: For western blot analysis the Biorad system with “Mini‐Protean® TGX Stain‐Fee™ Gels” and “Trans‐Blot® Turbo™ Transfer Pack Mini” PVDF‐membranes were used (Biorad, Germany). Protein lysates for analysis were prepared by seeding out 10^6 cells into T25 flasks and incubated with 4 in multiple concentrations of the viability IC50 for 6 and 24 h. […] Lysates were centrifuged at 18 000 g for 10 min at 4 °C and protein content was determined by the Bradford method against bovine serum albumin (BSA) as standard. […] Protein bands were detected with Clarity™ Western ECL Substrate (Biorad) and recorded by an Advanced Fluorescence Imager (INTAS, Germany).

Gumbus cells = assay: Western blot analysis of PARP cleavage; assay type: cell-based, human; conditions: multiple IC50 concentrations, 6 h
Method: as §1, §2

- IC50 (bovine erythrocyte GPx; 23 °C, n>3, 0.25 mM GSH, read-out: Enzyme inhibition IC50 (CI 95 %)): 2440 nM
- potency at inhibiting GPx1 compared to MSA (bovine erythrocyte GPx; ratio of IC50 values): twice as potent as MSA
SMILES: CCOc1c2c(c3cnc4cc(C)c(C)cc4n13)SSSSS2 [Compound 4]
- change of IC50 on co-treatment with ferrostatin-1 (SISO cell line): No significant changes in the IC50 value
- PARP cleavage (HL-60 cells): cleavage of PARP was detectable
- PARP cleavage (Gumbus cells): cleavage of PARP was detectable

Source: paper PMC7496275, “Pentathiepins: A Novel Class of Glutathione Peroxidase 1 Inhibitors that Induce Oxidative Stress, Loss of Mitochondrial Membrane Potential and Apoptosis in Human Cancer Cells” (Chemmedchem, 2020)
